Experimental data from BindingDB's records for patent US20240400586 (Haisco Pharmaceutical Group, 2024).

The molecules below were run against Poly [ADP-ribose] polymerase 1 (Homo sapiens, UniProt P09874) (assay: PARP1 Enzyme Activity Assay).
Poly [ADP-ribose] polymerase 1, sequence (P09874 whole entry): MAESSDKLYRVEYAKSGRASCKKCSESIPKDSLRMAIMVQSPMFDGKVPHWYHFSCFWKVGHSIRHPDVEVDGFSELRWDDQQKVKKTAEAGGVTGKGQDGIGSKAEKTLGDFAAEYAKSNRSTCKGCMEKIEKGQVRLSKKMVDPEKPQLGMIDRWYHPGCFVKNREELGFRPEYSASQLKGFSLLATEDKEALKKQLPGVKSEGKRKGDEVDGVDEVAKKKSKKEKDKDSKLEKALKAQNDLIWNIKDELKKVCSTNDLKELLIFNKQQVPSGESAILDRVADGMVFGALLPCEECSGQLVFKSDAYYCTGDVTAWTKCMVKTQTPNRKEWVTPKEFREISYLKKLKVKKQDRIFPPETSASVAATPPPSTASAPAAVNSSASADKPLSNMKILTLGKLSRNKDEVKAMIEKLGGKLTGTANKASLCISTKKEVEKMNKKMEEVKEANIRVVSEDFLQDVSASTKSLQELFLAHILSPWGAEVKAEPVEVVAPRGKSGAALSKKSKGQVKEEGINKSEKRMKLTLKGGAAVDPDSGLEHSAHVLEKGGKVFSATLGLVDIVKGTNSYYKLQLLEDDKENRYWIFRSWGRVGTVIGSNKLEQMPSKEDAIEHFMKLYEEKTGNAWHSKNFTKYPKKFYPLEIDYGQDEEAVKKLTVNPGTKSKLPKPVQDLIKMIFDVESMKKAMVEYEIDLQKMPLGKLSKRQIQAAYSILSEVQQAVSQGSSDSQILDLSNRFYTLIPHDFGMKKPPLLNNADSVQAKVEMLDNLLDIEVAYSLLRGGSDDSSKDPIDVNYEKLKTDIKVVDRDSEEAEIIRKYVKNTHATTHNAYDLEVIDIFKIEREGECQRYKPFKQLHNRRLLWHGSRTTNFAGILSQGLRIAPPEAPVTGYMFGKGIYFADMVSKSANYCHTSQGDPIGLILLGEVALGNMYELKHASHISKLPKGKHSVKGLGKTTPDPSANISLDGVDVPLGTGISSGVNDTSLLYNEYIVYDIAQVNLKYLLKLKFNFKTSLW
Experimental: The histone solution in the kit was diluted 5× with 1×PBS, and 25 μL of the diluted histone solution was added to a microwell plate and incubated overnight at 4° C. After the incubation, the plate was washed three times with PBST (0.05% Tween-20). 100 μL of the blocking solution was added to the microwell plate and incubated at 25° C. for 90 minutes. After the incubation, the plate was washed three times with PBST. 2.5 μL of compounds at different concentrations diluted in test buffer and 12.5 μL of substrate mixed solution (1.25 μL 10×PARP test buffer; 1.25 μL 10×PARP test mixed solution; 2.5 μL Activated DNA, 7.5 μL double-distilled water) were added to the microwell plate. The PARP1 enzyme was diluted to 2 ng/μL, 10 μL of the diluent was added to the microwell plate, and the reaction system was incubated at 25° C. for 60 minutes.After the incubation, the plate was washed three times with PBST. Streptavidin-HRP was diluted 50× with a blocking solution, and 25 μL of the diluent was added to the microwell plate and incubated at 25° C. for 30 minutes. After the incubation, the plate was washed three times with PBST. ELISA ECL substrate A and substrate B were mixed at a ratio of 1:1 (v/v), 50 μL of the mixture was added to the microwell plate, and the chemiluminescence value was read.

SMILES | IC50 [nM]
CCC1CC2N=CC(CN3CCN(C4C=CC(C(=O)N[C@@H]5C[C@@H]5F)=NC4)CC3)=CC2NC1=O (stereo partly drawn) [US20240400586, Compound 11] | 0.54
CCC1Cc2ncc(CN3CCN(C4CN5C=C(C)NC5C=N4)CC3)cc2NC1=O (stereo not drawn) [US20240400586, Compound 15] | 0.65
CCC1=CC2N=CC(CN3CCN(c4ccc(C(=O)NC5CCC5)nc4)CC3)CC2NC1=O (stereo not drawn) [US20240400586, Compound 10] | 0.56
